Entries after “also recorded” stand apart in the source; their conditions may differ.
What was measured:
[1] = target: cellular sigma receptors (C6 rat glioma cells) (Rattus norvegicus, UniProt Q9R0C9); test: Competition with 11C-SA4503 binding to intact C6 glioma cell monolayers; conditions: for competition with 11C-SA4503 for binding to cellular sigma receptors: 50 µM competitor added to normal growth medium (DMEM with 7.5% FCS); for reduction of 11C-SA4503 radioligand binding to C6 cells: 50 µM competitor, steroid-free medium; for rank order of potency as competitor of 11C-SA4503 binding: C6 cells, both normal and steroid-depleted medium, 50 µM
[2] = Ex vivo biodistribution of 11C-SA4503 in C6 glioma-bearing Wistar rats; conditions: for SUV of 11C, C6 tumour / SUV of 11C, Cerebellum / SUV of 11C, Cerebral cortex: 60 min after injection
[3] = test system: endogenous steroid levels in the brain (progesterone, pregnenolone); conditions: male rats, sodium pentobarbital 0.2 mmol/kg i.p.; cited from earlier work
[4] = target: sigma-1 receptors in tumour and brain (Rattus norvegicus, UniProt Q9R0C9); test: microPET scanning of 11C-SA4503 in C6 glioma-bearing Wistar rats
Plasma progesterone = conditions: female rats; cited from earlier work
[5] = prolonged pentobarbital anaesthesia, n = 5
[6] = prolonged pentobarbital anaesthesia vs control
[7] = progesterone 3 x 10 mg i.p. in arachid oil vs arachid oil

Chain of cellular sigma receptors (C6 rat glioma cells) (Q9R0C9 whole entry): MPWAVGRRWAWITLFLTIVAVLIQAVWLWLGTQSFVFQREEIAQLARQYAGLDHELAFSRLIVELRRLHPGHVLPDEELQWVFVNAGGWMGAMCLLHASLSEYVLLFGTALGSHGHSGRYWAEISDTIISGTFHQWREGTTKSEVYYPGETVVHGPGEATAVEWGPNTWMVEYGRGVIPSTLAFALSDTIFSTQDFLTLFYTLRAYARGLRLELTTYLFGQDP
Chain of sigma-1 receptors in tumour and brain (Q9R0C9 whole entry): as above

C[C@]12CC[C@H](OS(=O)(=O)[O-])CC1=CC[C@@H]1[C@@H]2CC[C@]2(C)C(=O)CC[C@@H]12.[Na+] [DHEA-S, dehydroepiandrosterone 3-sulphate sodium salt]
competition with 11C-SA4503 for binding to cellular sigma receptors [1]: no statistically significant effect
reduction of 11C-SA4503 radioligand binding to C6 cells [1]: significant decrease
rank order of potency as competitor of 11C-SA4503 binding [1]: progesterone > androstanolone = testosterone = allopregnanolone > DHEA-S

COc1ccc(CCN2CCN(CCCc3ccccc3)CC2)cc1OC [11C-SA4503]
SUV of 11C, C6 tumour ([2]; control (arachid oil), n = 4): 0.83
SUV of 11C, Cerebellum ([2]; control (arachid oil), n = 4): 1.66
SUV of 11C, Cerebral cortex ([2]; control (arachid oil), n = 4): 1.50
SUV of 11C, C6 tumour [2, 5]: 1.52
SUV of 11C, Cerebellum [2, 5]: 2.41
SUV of 11C, Cerebral cortex [2, 5]: 2.38

C[C@]12CC[C@H]3[C@@H](CCC4=CC(=O)CC[C@@]43C)[C@@H]1CC[C@@H]2O [testosterone]
competition with 11C-SA4503 for binding to cellular sigma receptors [1]: measurable competition
reduction of 11C-SA4503 radioligand binding to C6 cells [1]: 40%
rank order of potency as competitor of 11C-SA4503 binding [1]: progesterone > androstanolone = testosterone = allopregnanolone > DHEA-S

CCCC(C)C1(CC)C(=O)NC(=O)NC1=O (stereo not drawn) [pentobarbital]
decline of endogenous steroid levels in the brain (progesterone, pregnenolone) [3]: > 70%
effect on kinetics of 11C-SA4503 radioactivity in blood pool (right lung) ([4]; prolonged pentobarbital anaesthesia (>3.5 h) vs short (<20 min)): unaffected; also recorded: did not significantly affect
effect on amount of 11C-SA4503 radioactivity in the liver (biodistribution) [2, 6]: significantly decreased
effect on plasma levels of 11C-SA4503 radioactivity (biodistribution) [2, 6]: not changed
effect on sigma ligand binding in C6 tumour, brain (cerebellum, cerebral cortex), bone, bone marrow, large intestine, blood cells and spleen (biodistribution) [2, 6]: significant increase
inhibition of 11C-SA4503 binding to C6 cells ([1]; up to 1 mM in normal medium): did not result in any inhibition
effect on plasma progesterone (Plasma progesterone): decreased

CC(=O)[C@H]1CC[C@H]2[C@@H]3CCC4=CC(=O)CC[C@]4(C)[C@H]3CC[C@]12C [progesterone]
effect on 11C-SA4503 tracer kinetics in blood pool (microPET) [4, 7]: did not significantly affect; also recorded: not accompanied by any significant change
effect on 11C-SA4503 tracer kinetics in brain (microPET) [4, 7]: did not significantly affect
decrease of sigma ligand (11C-SA4503) binding in C6 tumour (biodistribution) ([2]; progesterone 3 x 10 mg i.p. vs arachid oil, 60 min after tracer): 31%

C[C@]12CCC(=O)C[C@@H]1CC[C@@H]1[C@@H]2CC[C@]2(C)[C@@H](O)CC[C@@H]12 [androstanolone, 5α-androstan-17β-ol-3-one]
competition with 11C-SA4503 for binding to cellular sigma receptors [1]: measurable competition
rank order of potency as competitor of 11C-SA4503 binding [1]: progesterone > androstanolone = testosterone = allopregnanolone > DHEA-S

— paper PMC2691528 (European Journal of Nuclear Medicine and Molecular Imaging, 2009)
